Source: patent US9902735B2, “Heteroaryl substituted compounds as RORγ inhibitors” (GlaxoSmithKline Intellectual Property Developement Limited, priority 2014, dated 2018)

Tests used:
Mouse CD4+ cells = experiment: Th17 cell differentiation assay (IL-17 ELISA); format: cell-based; conditions: mean of multiple test results if tested more than once, read-out: pIC50 in the Th17 cell differentiation assay (converted)
Description: Mouse CD4+ cells were purified using the CD4+ T Cell Isolation II Kit according to manufacturer's instructions (Miltenyi Biotec). 96 well plates were pre-coated with anti-mCD3 antibody. Un-coated wells were used as controls. CD4+ Cells were resuspended in RPMI 1640 complete medium and were added to the 96-well plates. Cytokine cocktail and the compound were then added to the wells. Antibodies and cytokines (all from R&D Systems) used in the assay were selected from the following: anti-mCD3; anti-mCD28; anti-mIFNγ; anti-mIL4; mIL-6; mIL-23; mIL-1β; hTGF-β1. The culture was incubated at 37° C. for 3 days and supernatants were collected for ELISA. The IL-17 ELISAs were performed according to manufacturer's instructions (R&D Systems). The results were analyzed using Prism software with non-linear regression to determine pIC50.
The Th17 differentiation culture described above was maintained for 5 days and cells were analyzed by IL-17 and IFN-γ intracellular staining according to manufacturer's instructions (BD Biosciences).

[1] = biological target: T1, Human RORγ Ligand Binding Domain (RORγ-LBD) (Homo sapiens, UniProt P51449); experiment: Dual Fluorescence Energy Transfer (FRET) assay; format: biochemical; conditions: mean of multiple test results if tested more than once; read-out: pIC50 in the dual FRET assay (converted)
T1 construct: made in house; host or cells: E. coli BL21(DE3)
T1 sequence (P51449 263-518): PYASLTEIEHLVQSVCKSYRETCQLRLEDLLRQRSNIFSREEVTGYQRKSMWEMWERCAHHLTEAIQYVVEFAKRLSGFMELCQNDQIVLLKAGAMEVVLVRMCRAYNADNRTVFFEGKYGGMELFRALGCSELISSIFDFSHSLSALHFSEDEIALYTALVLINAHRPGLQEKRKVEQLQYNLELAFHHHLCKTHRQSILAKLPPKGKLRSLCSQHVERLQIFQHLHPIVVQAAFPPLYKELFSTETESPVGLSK
From the text: This assay is based on the knowledge that nuclear receptors interact with cofactors (transcription factors) in a ligand dependent manner. RORγ is a typical nuclear receptor in that it has an AF2 domain in the ligand binding domain (LBD) which interacts with co-activators. The sites of interaction have been mapped to the LXXLL motifs in the co-activator SRC1(2) sequences. Short peptide sequences containing the LXXLL motif mimic the behavior of full-length co-activator.
The assay measures ligand-mediated interaction of the co-activator peptide with the purified bacterial-expressed RORγ ligand binding domain (RORγ-LBD) to indirectly assess ligand binding. RORγ has a basal level of interaction with the co-activator SRC1(2) in the absence of ligand, thus it is possible to find ligands that inhibit or enhance the RORγ/SRC1(2) interaction.
Human RORγ Ligand Binding Domain (RORγ-LBD) was expressed in E. coli strain BL21(DE3) as an amino-terminal polyhistidine tagged fusion protein. DNA encoding this recombinant protein was sub-cloned into a modified pET21a expression vector (Novagen). […]
Approximately 50 g E. coli cell pellet was resuspended in 300 mL of lysis buffer (30 mM imidazole pH 7.0 and 150 mM NaCl). […] After washing to baseline absorbance with the equilibration buffer, the column was developed with a gradient from 30 to 500 mM imidazole pH 7.0. […]

IC50 (Mouse CD4+ cells): ~0.00501 µM
IC50 [1]: ~0.1 µM
SMILES: Cc1ncc(C(=O)Nc2cc(Cl)cc(CN3CCN(C(=O)CC4CC4)[C@@H](C)C3)c2C)cc1F [Example 80, (S)—N-(5-chloro-3-((4-(2-cyclopropylacetyl)-3-methylpiperazin-1-yl)methyl)-2-methylphenyl)-5-fluoro-6-methylnicotinamide]
